{"source": "patent US12145920B2", "about": "“Lanthionine c-like protein 2 ligands, cells prepared therewith, and therapies using same” (NImmune Biopharma, Inc., priority 2019, dated 2024)", "key": {"[1]": {"test_system": "CD4+ T cells", "test": "Immune effects in CD4+ splenocytes, flow cytometry (wild type)", "format": "cell-based, C57BL/6 mice", "settings": "0.1 micromolar, 48 h, vs vehicle, FIG. 4B", "source_text": "Cell culture. Spleens were excised from C57BL/6 mice and assessed in wild-type and LANCL2 deficient states. Spleens were crushed between the frosted ends of microscope slides and filtered to provide a cellular suspension. Red blood cells were lysed through hypotonic lysis. Remaining cells were washed and filtered. CD4+ T cells were enriched within the suspension using magnetic sorting based negative selection. Cells were collected and plated within 96 well plates coated with anti-CD3 and cultured in the presence of BT-63 at 0, 0.1, 1 and 10 micromolar or BT-104A, BT-104B, or BT-104C at 0.1 micromolar for 48 h. During the last 6 h of culture, cells were stimulated with phorbol 12-myristate-13-acetate (PMA) and ionomycin.\nImmunological analysis. Cells were collected from 96 well plates and stained with a cocktail of antibodies for immunophenotyping by flow cytometry. Culture supernatant was collected and assayed for cytokine concentrations by cytometric bead array. Data was captured on a BD FACS Celesta and analyzed using FacsDiva."}, "[2]": {"settings": "mice, oral dose of 10 mg/kg, comparison value; cited from earlier work"}, "[3]": {"test_system": "C57B1/6 mice immunized with chicken collagen", "test": "Collagen induced model of arthritis", "format": "in vivo", "settings": "spleens, 4 weeks daily oral 20 mg/kg vs vehicle", "experimental": "Models. Six-week-old C57B1/6 mice were immunized with 200 μg of chicken collagen emulsified in complete Freund's adjuvant by intradermal injections at the base of the tail. Mice were treated with 20 mg/kg of BT-104-B or vehicle, daily for four weeks.\n(§1) Immunological analysis. Spleens were excised from mice. Tissues were crushed and filtered to provide a cellular suspension. Red blood cells were lysed. Cells were labeled with mixtures of extracellular (CD45, CD3, CD4, CD8, CD11b, CD11c) and intracellular (IFNγ, IL17, TNF) antibodies in a sequential live staining in 96-well plates in preparation for flow cytometry. Data was captured on a BD FACS Celesta and analyzed using FACSDiva."}, "[4]": {"test_system": "NZB/W F1 mice", "test": "NZB/W F1 genetic mouse model of SLE (BT-104-B)", "format": "in vivo", "settings": "spleens, 12 weeks daily oral 20 mg/kg vs vehicle", "experimental": "NZB/W F1 model. Twenty-four-week-old, female NZB/W F1 mice were randomized into vehicle or BT-104-B treated arms based on baseline urine protein levels. BT-104-B was administered daily at 20 mg/kg for 12 weeks. Mice were weighed on a weekly basis to update dosage formulation. Dosage was calculated based off mean body weights.\nas §1, with “excised,” for “excised from mice. Tissues were”, “CD25)” for “CD11b, CD11c)”, “(IL21,” for “(IFNγ,”, “FOXP3)” for “TNF)”"}, "[5]": {"test_system": "C57BL/6 mice with CCl4-induced steatohepatitis", "test": "CCl4 model of nonalcoholic steatohepatitis", "format": "in vivo", "settings": "oral 20 mg/kg, after 2 weeks of treatment", "experimental": "WD-induced model. C57BL/6 mice were administered bi-weekly intraperitoneal injections of 0.5 μL/g CCl4 to induce steatohepatitis for 4 weeks. Mice were treated daily, in a therapeutic manner after 2 weeks of injections. Treatment with BT-104-B (20 mg/kg) or vehicle control occurred by oral gavage. Dosage was calculated based off mean body weights.\nAnalysis. Livers were excised and weighed. Sections of livers were excised and stored in buffered formalin for Sirius red staining or snap frozen for assessment of fibrosis. Severity of fibrosis was assessed by scoring of Sirius red stained liver by microscopic examination."}}}
{"smiles": "CC(C)(C(=O)c1ccccc1)N1CCN(C(=O)c2cccc(-c3nc4ccccc4[nH]3)n2)CC1", "note": "[BT-104-A]", "values": [{"measurement": "TNFa+ CD4+ T cells", "setting": "[1]", "result": "significantly decreasing"}, {"measurement": "proportions of IFNγ+ CD4+ T cells", "setting": "[1]", "result": "significantly decrease"}]}
{"smiles": "O=C(c1cccc(-c2nc3ccccc3[nH]2)n1)N1CCN(C(=O)c2cccc(-c3nc4ccccc4[nH]3)n2)CC1", "note": "[BT-11, N,N-Bis(benzimidazolylpicolinoyl)piperazine]", "values": [{"measurement": "maximum plasma concentration", "setting": "[2]", "result": 4.9, "unit": "ng/mL"}]}
{"smiles": "O=C(CN1C(=O)CN(C(=O)c2cccc(-c3nc4ccccc4[nH]3)n2)CC1=O)c1ccccc1", "note": "[BT-104-B, 4-(6-(1H-benzo[d]imidazol-2-yl)picolinoyl)-1-(2-oxo-2-phenylethyl)piperazine-2,6-dione]", "values": [{"measurement": "proportion of IFNγ+ CD4+ T cells", "setting": "[3]", "result": "significantly reduced"}, {"measurement": "proportion of IL-17+ CD4+ T cells", "setting": "[3]", "result": "significantly reduced"}, {"measurement": "proportion of TNF+ CD11b+ CD11c+ myeloid cells", "setting": "[3]", "result": "significantly reduced"}, {"measurement": "proportion of CD25+ FOXP3+ CD4+ T cells", "setting": "[4]", "result": "significantly increasing"}, {"measurement": "proportion of IL21+ CD4+ T cells", "setting": "[4]", "result": "significantly reduced"}, {"measurement": "proportion of IL-17+ CD4+ T cells", "setting": "[4]", "result": "significantly reduced"}, {"measurement": "TNFa+ CD4+ T cells", "setting": "[1]", "result": "significantly decreasing"}, {"measurement": "proportions of IFNγ+ CD4+ T cells", "setting": "[1]", "result": "significantly decrease"}, {"measurement": "fibrotic scoring", "setting": "[5]; Sirius red", "result": "reduced"}, {"measurement": "liver weights", "setting": "[5]", "result": "reduced"}]}
